Experimental data as given in the kinase profiling compilation of Christmann-Franck et al. (2016).

Legend:
Experiment in all cases: KINOMEscan competition binding
Settings in all cases: compound 10.0 µM
MAP2K3 (human) = MAP2K3 (human) (UniProt P46734)
PHKG2 (human) = PHKG2 (human) (UniProt P15735)
CDC42BPB (human) = CDC42BPB (human) (UniProt Q9Y5S2)
CDK11B (human) = CDK11B (human) (UniProt P21127)
[1] = system: PIK3CA (human), P42336 [E542K]
MAPK14 (human) = MAPK14 (human) (UniProt Q16539)
PDPK1 (human) = PDPK1 (human) (UniProt O15530)
SRPK1 (human) = SRPK1 (human) (UniProt Q96SB4)
SLK (human) = SLK (human) (UniProt Q9H2G2)
AKT1 (human) = AKT1 (human) (UniProt P31749)
CDK15 (human) = CDK15 (human) (UniProt Q96Q40)
CDK13 (human) = CDK13 (human) (UniProt Q14004)
MAPK11 (human) = MAPK11 (human) (UniProt Q15759)
WEE2 (human) = WEE2 (human) (UniProt P0C1S8)
PKN1 (human) = PKN1 (human) (UniProt Q16512)
SRPK3 (human) = SRPK3 (human) (UniProt Q9UPE1)
MST1R (human) = MST1R (human) (UniProt Q04912)
PIK3CA (human) = PIK3CA (human) (UniProt P42336)
PRKCQ (human) = PRKCQ (human) (UniProt Q04759)
RAF1 (human) = RAF1 (human) (UniProt P04049)
RIPK2 (human) = RIPK2 (human) (UniProt O43353)
MAP2K7 (human) = MAP2K7 (human) (UniProt O14733)
MUSK (human) = MUSK (human) (UniProt O15146)
RPS6KA3 KD1 (human) = RPS6KA3 KD1 (human) (UniProt P51812)
PRKX (human) = PRKX (human) (UniProt P51817)
DYRK1B (human) = DYRK1B (human) (UniProt Q9Y463)
AKT3 (human) = AKT3 (human) (UniProt Q9Y243)
ACVR1B (human) = ACVR1B (human) (UniProt P36896)
STK25 (human) = STK25 (human) (UniProt O00506)
OXSR1 (human) = OXSR1 (human) (UniProt O95747)
MAPK8 (human) = MAPK8 (human) (UniProt P45983)
MAP3K1 (human) = MAP3K1 (human) (UniProt Q13233)
MAP2K6 (human) = MAP2K6 (human) (UniProt P52564)
EPHA1 (human) = EPHA1 (human) (UniProt P21709)
MAPK15 (human) = MAPK15 (human) (UniProt Q8TD08)
GRK1 (human) = GRK1 (human) (UniProt Q15835)
ULK3 (human) = ULK3 (human) (UniProt Q6PHR2)
PIK3C2G (human) = PIK3C2G (human) (UniProt O75747)
RPS6KA5 KD2 (human) = RPS6KA5 KD2 (human) (UniProt O75582)
EPHB6 (human) = EPHB6 (human) (UniProt O15197)

Sequence of MAPK14 (human) (Q16539 whole entry, looked up): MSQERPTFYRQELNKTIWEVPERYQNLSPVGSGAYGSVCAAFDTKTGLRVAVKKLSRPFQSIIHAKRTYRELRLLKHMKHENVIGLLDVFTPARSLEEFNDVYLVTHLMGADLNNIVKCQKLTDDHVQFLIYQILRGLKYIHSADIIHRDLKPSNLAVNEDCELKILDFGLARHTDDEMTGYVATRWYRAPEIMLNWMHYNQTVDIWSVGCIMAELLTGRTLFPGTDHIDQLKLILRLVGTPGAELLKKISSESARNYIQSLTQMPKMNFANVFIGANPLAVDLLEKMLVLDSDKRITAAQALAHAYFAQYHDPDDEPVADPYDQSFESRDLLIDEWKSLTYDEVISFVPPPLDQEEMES
Sequence of OXSR1 (human) (O95747 whole entry, looked up): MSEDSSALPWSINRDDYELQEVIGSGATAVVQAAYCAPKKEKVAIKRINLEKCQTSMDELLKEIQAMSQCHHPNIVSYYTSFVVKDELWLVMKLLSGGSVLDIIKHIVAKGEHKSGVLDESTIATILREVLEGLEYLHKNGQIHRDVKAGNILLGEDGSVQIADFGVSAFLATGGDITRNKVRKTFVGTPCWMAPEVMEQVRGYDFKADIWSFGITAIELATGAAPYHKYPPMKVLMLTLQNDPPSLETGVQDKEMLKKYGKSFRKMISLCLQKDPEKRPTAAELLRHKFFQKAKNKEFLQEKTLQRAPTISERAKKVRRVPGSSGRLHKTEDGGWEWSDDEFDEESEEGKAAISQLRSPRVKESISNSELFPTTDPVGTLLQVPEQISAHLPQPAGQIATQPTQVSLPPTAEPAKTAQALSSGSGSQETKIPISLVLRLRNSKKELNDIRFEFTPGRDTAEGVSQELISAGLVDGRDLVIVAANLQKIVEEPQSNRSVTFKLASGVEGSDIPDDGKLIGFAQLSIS
Sequence of RPS6KA5 KD2 (human) (O75582 whole entry, looked up): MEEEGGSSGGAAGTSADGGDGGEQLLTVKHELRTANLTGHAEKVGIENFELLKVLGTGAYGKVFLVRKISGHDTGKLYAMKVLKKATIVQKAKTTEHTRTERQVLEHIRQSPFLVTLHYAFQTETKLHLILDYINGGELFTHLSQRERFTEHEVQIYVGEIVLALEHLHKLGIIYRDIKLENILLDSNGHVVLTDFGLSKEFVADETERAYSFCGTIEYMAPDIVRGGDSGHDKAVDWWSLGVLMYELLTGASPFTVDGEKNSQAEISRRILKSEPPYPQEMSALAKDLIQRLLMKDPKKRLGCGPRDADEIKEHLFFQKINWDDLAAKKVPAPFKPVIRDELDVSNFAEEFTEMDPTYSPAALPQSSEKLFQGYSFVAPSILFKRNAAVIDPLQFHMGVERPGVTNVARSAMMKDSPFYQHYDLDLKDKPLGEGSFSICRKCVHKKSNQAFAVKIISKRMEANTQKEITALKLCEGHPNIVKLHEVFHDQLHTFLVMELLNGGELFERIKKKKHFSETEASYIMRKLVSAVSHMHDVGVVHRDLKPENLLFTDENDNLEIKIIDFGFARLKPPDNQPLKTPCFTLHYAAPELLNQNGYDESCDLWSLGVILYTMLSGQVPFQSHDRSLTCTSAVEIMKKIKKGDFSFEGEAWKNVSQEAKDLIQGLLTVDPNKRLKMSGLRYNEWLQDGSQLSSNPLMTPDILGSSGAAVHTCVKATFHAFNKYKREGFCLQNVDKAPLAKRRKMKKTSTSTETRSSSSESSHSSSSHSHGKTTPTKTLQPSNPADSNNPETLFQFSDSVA
Sequence of ACVR1B (human) (P36896 whole entry, looked up): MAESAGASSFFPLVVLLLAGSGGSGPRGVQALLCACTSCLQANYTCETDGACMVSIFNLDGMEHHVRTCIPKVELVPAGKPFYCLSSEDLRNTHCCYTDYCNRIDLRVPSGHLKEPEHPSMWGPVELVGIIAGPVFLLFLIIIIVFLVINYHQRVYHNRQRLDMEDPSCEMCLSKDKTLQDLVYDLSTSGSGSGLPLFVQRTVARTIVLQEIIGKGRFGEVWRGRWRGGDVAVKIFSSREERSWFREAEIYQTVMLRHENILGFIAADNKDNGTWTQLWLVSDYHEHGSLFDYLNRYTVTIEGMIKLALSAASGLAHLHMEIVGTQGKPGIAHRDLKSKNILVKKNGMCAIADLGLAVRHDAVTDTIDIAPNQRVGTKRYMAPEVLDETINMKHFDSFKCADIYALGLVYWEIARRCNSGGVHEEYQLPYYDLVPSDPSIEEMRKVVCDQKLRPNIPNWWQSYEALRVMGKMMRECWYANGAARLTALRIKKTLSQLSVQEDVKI
Sequence of CDK11B (human) (P21127 whole entry, looked up): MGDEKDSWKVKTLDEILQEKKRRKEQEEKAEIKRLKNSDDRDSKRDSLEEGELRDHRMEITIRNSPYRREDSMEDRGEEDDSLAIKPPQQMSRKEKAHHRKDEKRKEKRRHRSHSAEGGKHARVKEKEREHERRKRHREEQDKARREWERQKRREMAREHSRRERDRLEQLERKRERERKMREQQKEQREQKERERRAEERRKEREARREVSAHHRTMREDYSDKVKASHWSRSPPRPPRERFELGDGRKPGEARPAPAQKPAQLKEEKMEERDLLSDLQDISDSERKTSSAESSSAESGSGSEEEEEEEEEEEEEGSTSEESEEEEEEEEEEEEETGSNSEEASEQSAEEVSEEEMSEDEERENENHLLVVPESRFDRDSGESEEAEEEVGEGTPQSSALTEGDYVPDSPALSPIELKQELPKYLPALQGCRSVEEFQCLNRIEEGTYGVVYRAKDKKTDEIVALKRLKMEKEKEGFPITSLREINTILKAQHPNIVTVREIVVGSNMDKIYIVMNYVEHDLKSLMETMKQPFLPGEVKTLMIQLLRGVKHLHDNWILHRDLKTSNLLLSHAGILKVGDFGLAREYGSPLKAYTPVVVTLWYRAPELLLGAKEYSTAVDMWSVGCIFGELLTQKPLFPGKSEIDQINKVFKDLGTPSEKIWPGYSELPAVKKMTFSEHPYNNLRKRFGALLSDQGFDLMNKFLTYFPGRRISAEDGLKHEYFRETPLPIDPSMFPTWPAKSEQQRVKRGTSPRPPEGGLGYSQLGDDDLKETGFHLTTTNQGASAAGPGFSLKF
Sequence of MAP2K6 (human) (P52564 whole entry, looked up): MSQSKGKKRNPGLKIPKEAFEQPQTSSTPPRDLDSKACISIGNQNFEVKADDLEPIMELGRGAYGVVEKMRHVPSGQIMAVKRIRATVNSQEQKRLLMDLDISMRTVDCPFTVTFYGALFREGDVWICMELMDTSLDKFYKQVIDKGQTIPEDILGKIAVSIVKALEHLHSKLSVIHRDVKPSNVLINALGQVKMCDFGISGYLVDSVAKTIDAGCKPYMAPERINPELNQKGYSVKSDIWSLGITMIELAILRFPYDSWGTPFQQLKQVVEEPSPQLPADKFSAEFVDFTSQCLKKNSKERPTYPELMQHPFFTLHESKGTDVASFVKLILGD
Sequence of CDK13 (human) (Q14004 whole entry, looked up): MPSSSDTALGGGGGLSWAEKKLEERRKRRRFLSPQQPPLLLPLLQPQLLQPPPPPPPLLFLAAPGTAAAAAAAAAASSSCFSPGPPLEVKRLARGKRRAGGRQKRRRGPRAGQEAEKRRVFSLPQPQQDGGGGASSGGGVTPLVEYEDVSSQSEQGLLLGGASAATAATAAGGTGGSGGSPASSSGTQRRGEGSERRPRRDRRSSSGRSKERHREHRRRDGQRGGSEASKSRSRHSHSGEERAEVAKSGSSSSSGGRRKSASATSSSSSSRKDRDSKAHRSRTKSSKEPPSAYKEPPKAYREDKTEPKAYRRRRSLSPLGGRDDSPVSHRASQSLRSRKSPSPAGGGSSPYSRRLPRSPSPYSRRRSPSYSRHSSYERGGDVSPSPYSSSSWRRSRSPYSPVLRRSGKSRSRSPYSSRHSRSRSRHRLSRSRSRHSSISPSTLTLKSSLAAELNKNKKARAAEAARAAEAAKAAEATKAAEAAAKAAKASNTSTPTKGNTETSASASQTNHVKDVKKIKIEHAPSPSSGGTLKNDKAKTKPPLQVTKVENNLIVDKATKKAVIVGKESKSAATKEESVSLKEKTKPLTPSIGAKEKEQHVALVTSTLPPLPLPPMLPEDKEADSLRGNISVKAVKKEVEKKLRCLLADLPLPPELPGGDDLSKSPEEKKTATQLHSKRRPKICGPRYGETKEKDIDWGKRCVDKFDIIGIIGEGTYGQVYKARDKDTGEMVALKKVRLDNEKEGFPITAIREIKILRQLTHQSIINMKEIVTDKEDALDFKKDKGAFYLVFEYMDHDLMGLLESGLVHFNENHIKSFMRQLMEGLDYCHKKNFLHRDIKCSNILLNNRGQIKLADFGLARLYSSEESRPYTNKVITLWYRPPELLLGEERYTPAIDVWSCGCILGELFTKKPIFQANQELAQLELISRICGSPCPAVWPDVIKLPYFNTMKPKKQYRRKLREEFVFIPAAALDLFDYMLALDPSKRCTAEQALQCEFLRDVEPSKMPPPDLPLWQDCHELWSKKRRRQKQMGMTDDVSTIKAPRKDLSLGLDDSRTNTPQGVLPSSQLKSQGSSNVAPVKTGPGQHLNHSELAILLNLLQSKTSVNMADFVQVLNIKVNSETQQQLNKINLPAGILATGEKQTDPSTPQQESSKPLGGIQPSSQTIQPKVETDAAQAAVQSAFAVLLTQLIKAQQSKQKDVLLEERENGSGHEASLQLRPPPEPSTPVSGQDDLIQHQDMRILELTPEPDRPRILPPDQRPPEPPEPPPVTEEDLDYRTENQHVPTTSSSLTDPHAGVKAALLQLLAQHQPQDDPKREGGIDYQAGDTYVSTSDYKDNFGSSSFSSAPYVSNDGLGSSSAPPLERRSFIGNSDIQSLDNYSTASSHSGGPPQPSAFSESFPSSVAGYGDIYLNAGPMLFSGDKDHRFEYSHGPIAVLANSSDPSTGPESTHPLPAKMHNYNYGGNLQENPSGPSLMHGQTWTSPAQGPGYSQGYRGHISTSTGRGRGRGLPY

SMILES: CC1=C(C(=O)Nc2cc3cn[nH]c3cc2F)C(c2ccc(C(F)(F)F)cc2)CC(=O)N1 (stereo not given)
- kinase still bound, per cent of control (MAP2K3 (human)): 67%
- kinase still bound, per cent of control (PHKG2 (human)): 92%
- kinase still bound, per cent of control (CDC42BPB (human)): 22%
- kinase still bound, per cent of control (CDK11B (human)): 89%
- kinase still bound, per cent of control [1]: 92%
- kinase still bound, per cent of control (MAPK14 (human)): 100%
- kinase still bound, per cent of control (PDPK1 (human)): 100%
- kinase still bound, per cent of control (SRPK1 (human)): 100%
- kinase still bound, per cent of control (SLK (human)): 100%
- kinase still bound, per cent of control (AKT1 (human)): 76%
- kinase still bound, per cent of control (CDK15 (human)): 84%
- kinase still bound, per cent of control (CDK13 (human)): 24%
- kinase still bound, per cent of control (MAPK11 (human)): 92%
- kinase still bound, per cent of control (WEE2 (human)): 66%
- kinase still bound, per cent of control (PKN1 (human)): 19%
- kinase still bound, per cent of control (SRPK3 (human)): 98%
- kinase still bound, per cent of control (MST1R (human)): 55%
- kinase still bound, per cent of control (PIK3CA (human)): 80%
- kinase still bound, per cent of control (PRKCQ (human)): 54%
- kinase still bound, per cent of control (RAF1 (human)): 100%
- kinase still bound, per cent of control (RIPK2 (human)): 77%
- kinase still bound, per cent of control (MAP2K7 (human)): 80%
- kinase still bound, per cent of control (MUSK (human)): 95%
- kinase still bound, per cent of control (RPS6KA3 KD1 (human)): 53%
- kinase still bound, per cent of control (PRKX (human)): 14%
- kinase still bound, per cent of control (DYRK1B (human)): 84%
- kinase still bound, per cent of control (AKT3 (human)): 40%
- kinase still bound, per cent of control (ACVR1B (human)): 94%
- kinase still bound, per cent of control (STK25 (human)): 64%
- kinase still bound, per cent of control (OXSR1 (human)): 92%
- kinase still bound, per cent of control (MAPK8 (human)): 85%
- kinase still bound, per cent of control (MAP3K1 (human)): 90%
- kinase still bound, per cent of control (MAP2K6 (human)): 95%
- kinase still bound, per cent of control (EPHA1 (human)): 77%
- kinase still bound, per cent of control (MAPK15 (human)): 80%
- kinase still bound, per cent of control (GRK1 (human)): 78%
- kinase still bound, per cent of control (ULK3 (human)): 99%
- kinase still bound, per cent of control (PIK3C2G (human)): 52%
- kinase still bound, per cent of control (RPS6KA5 KD2 (human)): 87%
- kinase still bound, per cent of control (EPHB6 (human)): 68%

SMILES: CCN1CCN(Cc2ccc(NC(=O)c3ccc(C)c(/C=C/c4cnc5[nH]ccc5c4OC)c3)cc2C(F)(F)F)CC1
- kinase still bound, per cent of control (MAP2K3 (human)): 68%
- kinase still bound, per cent of control (PHKG2 (human)): 100%
- kinase still bound, per cent of control (CDC42BPB (human)): 65%
- kinase still bound, per cent of control (CDK11B (human)): 8.5%
- kinase still bound, per cent of control [1]: 100%
- kinase still bound, per cent of control (MAPK14 (human)): 0%
- kinase still bound, per cent of control (PDPK1 (human)): 65%
- kinase still bound, per cent of control (SRPK1 (human)): 1.8%
- kinase still bound, per cent of control (SLK (human)): 0.6%
- kinase still bound, per cent of control (AKT1 (human)): 100%
- kinase still bound, per cent of control (CDK15 (human)): 36%
- kinase still bound, per cent of control (CDK13 (human)): 100%
- kinase still bound, per cent of control (MAPK11 (human)): 0%
- kinase still bound, per cent of control (WEE2 (human)): 4.8%
- kinase still bound, per cent of control (PKN1 (human)): 16%
- kinase still bound, per cent of control (SRPK3 (human)): 13%
- kinase still bound, per cent of control (MST1R (human)): 100%
- kinase still bound, per cent of control (PIK3CA (human)): 100%
- kinase still bound, per cent of control (PRKCQ (human)): 31%
- kinase still bound, per cent of control (RAF1 (human)): 0.9%
- kinase still bound, per cent of control (RIPK2 (human)): 1.8%
- kinase still bound, per cent of control (MAP2K7 (human)): 1.4%
- kinase still bound, per cent of control (MUSK (human)): 0%
- kinase still bound, per cent of control (RPS6KA3 KD1 (human)): 14%
- kinase still bound, per cent of control (PRKX (human)): 75%
- kinase still bound, per cent of control (DYRK1B (human)): 27%
- kinase still bound, per cent of control (AKT3 (human)): 100%
- kinase still bound, per cent of control (ACVR1B (human)): 98%
- kinase still bound, per cent of control (STK25 (human)): 100%
- kinase still bound, per cent of control (OXSR1 (human)): 74%
- kinase still bound, per cent of control (MAPK8 (human)): 19%
- kinase still bound, per cent of control (MAP3K1 (human)): 71%
- kinase still bound, per cent of control (MAP2K6 (human)): 79%
- kinase still bound, per cent of control (EPHA1 (human)): 2%
- kinase still bound, per cent of control (MAPK15 (human)): 67%
- kinase still bound, per cent of control (GRK1 (human)): 96%
- kinase still bound, per cent of control (ULK3 (human)): 1.5%
- kinase still bound, per cent of control (PIK3C2G (human)): 82%
- kinase still bound, per cent of control (RPS6KA5 KD2 (human)): 100%
- kinase still bound, per cent of control (EPHB6 (human)): 1.8%
